Columns and labels:
[1] = tested on: Giant Foxtail (Setaria faberi); assay: Preemergence herbicidal activity, soil spray; format: in vivo; details: Setaria faberi, pre-emergence, 504 h, Table 5; rate 560 ppm; visual score after 3 weeks; read-out: Pre-emergent % control SETFA
In short: (§1)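 Seeds were sown in a 70:30 loam–sand mix (pH about 8.1, about 1.5% organic matter), and test compound from acetone:DMSO 97:3 stocks, diluted in 99.9:0.1 water:Tween 155, was sprayed evenly on the soil surface before emergence. Pots were held in a greenhouse under an approximate 15 hr photoperiod with top-irrigation.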

[2] = tested on: Crabgrass(large) (Digitaria sanguinalis); assay: Preemergence herbicidal activity, soil spray; format: in vivo; details: Digitaria sanguinalis, pre-emergence, 504 h; Table 5; rate 560 ppm; visual score after 3 weeks; read-out: Pre-emergent % control DIGSA
In short: as §1

[3] = tested on: Lambsquarter (Chenopodium album); assay: Preemergence herbicidal activity, soil spray; format: in vivo; details: Chenopodium album, pre-emergence, 504 h; Table 5; rate 560 ppm; visual score after 3 weeks, 100 complete kill or no germination; read-out: Pre-emergent % control CHEAL
In short: as §1

[4] = tested on: Pigweed (redroot) (Amaranthus retroflexus); assay: Preemergence herbicidal activity, soil spray; format: in vivo; details: Amaranthus retroflexus, pre-emergence, 504 h; Table 5; rate 560 ppm; visual score after 3 weeks; read-out: Pre-emergent % control AMARE
In short: as §1

[5] = tested on: Barnyardgrass (Echinochloa crus-galli); assay: Postemergence herbicidal activity, greenhouse spray; format: in vivo; details: Echinochloa crus-galli, post-emergence, 336 h, Table 1; rate 250 ppm; visual score after 2 weeks; read-out: Post-emergent % control ECHCG
In short: (§2)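 Foliar spray at 1st-2nd true leaf; carrier: acetone/water/IPA/DMSO/crop oil concentrate/Triton X-155 (48.5:39:10:1.5:1.0:0.02). Serial dilutions from acetone:DMSO stock. Greenhouse ~15 h light, 23-29° C day. Sub-irrigated post-treatment. Carrier-sprayed controls.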

[6] = tested on: Lambsquarter (Chenopodium album); assay: as above; format: in vivo; details: Chenopodium album, post-emergence, 336 h; Table 1; rate 250 ppm; visual score after 2 weeks; read-out: Post-emergent % control CHEAL
In short: as §2

[7] = tested on: Pigweed (redroot) (Amaranthus retroflexus); assay: as above; format: in vivo; details: visual score after 2 weeks
In short: as §2

[8] = tested on: Cocklebur (Xanthium strumarium); assay: as above; format: in vivo; details: Xanthium strumarium, post-emergence, 336 h; Table 1; rate 250 ppm; visual score after 2 weeks; read-out: Post-emergent % control XANST
In short: as §2

[9] = tested on: Yellow nutsedge (Cyperus esculentus); assay: as above; format: in vivo; details: Cyperus, post-emergence, 336 h, Table 1; rate 250 ppm; visual score after 2 weeks; read-out: Post-emergent % control CYPES
In short: as §2

[10] = tested on: Wheat(var. Merica) (Triticum aestivum); assay: Postemergence herbicidal activity, selectivity to wheat; format: in vivo; details: post-emergence, 336 h, Table 3, rate 62.5 (unit inferred), crop injury, read-out: Post-emergent % control TRZAS
Description: (§3) Seeds of the desired test plant species were planted in Grace-Sierra MetroMix® 306 planting mixture, which typically has a pH of 6.0 to 6.8 and an organic matter content of about 30 percent, in plastic pots with a surface area of 64 square centimeters. When required to ensure good germination and healthy plants, a fungicide treatment and/or other chemical or physical treatment was applied. The plants were grown for 7-21 days in a greenhouse with an approximate 15 hr photoperiod which was maintained at about 23-29° C. during the day and 22-28° C. during the night. Nutrients and water were added on a regular basis and supplemental lighting was provided with overhead metal halide 1000-Watt lamps as necessary. The plants were employed for testing when they reached the first or second true leaf stage. A weighed amount, determined by the highest rate to be tested, of each test compound was placed in a 20 mL glass vial and was dissolved in 4 mL of a 97:3 v/v (volume/volume) mixture of acetone and dimethyl sulfoxide (DMSO) to obtain concentrated stock solutions. […] The concentrated stock solutions obtained were diluted with an aqueous mixture containing acetone, water, isopropyl alcohol, DMSO, At plus 411 F crop oil concentrate, and Triton X-155 surfactant in a 48.5:39:10:1.5:1.0:0.02 v/v ratio to obtain spray solutions of known concentration. The solutions containing the highest concentration to be tested were prepared by diluting 2 mL aliquots of the stock solution with 13 mL of the mixture and lower concentrations were prepared by serial dilution of the stock solution. Approximately 1.5 mL aliquots of each solution of known concentration were sprayed evenly onto each of the test plant pots using a DeVilbiss atomizer driven by compressed air pressure of […] (140 to 280 kiloPascals) to obtain thorough coverage of each plant. Control plants were sprayed in the same manner with the aqueous mixture. In this test an application rate of 1 ppm results in the application of approximately 1 g/Ha. The treated plants and control plants were placed in a greenhouse as described above and watered by sub-irrigation to prevent wash-off of the test compounds. After 2 weeks the condition of the test plants as compared with that of the untreated plants was determined visually and scored on a scale of 0 to 100 percent where 0 corresponds to no injury and 100 corresponds to complete kill.

[11] = tested on: Corn (#14 3377) (Zea mays); assay: Postemergence herbicidal activity, selectivity to corn; format: in vivo; details: post-emergence, 336 h, Table 4, rate 62.5 (unit inferred), crop injury, read-out: Post-emergent % control ZEAMX
Description: as §3

COC(=O)c1nc(-c2cccc(C)c2)cc(N)c1Cl [Compound 21, Methyl 4-amino-3-chloro-6-(3-methylphenyl)pyridine-2-carboxylate]
pest or weed control at 560 ppm [1]: 80% | pest or weed control at 560 ppm [2]: 100% | pest or weed control at 560 ppm [3]: 100% | pest or weed control at 560 ppm [4]: 100% | pest or weed control at 250 ppm [5]: 0% | pest or weed control at 250 ppm [6]: 100% | pest or weed control at 62.5 µg/mL ([7]; Amaranthus retroflexus, post-emergence, 336 h, Table 3, rate 62.5 (unit inferred), read-out: Post-emergent % control AMARE): 70% | Post-emergent % control AMARE ([7]; Table 4, rate 62.5 (unit not given)): 70% | pest or weed control at 250 ppm [8]: 100% | pest or weed control at 250 ppm [9]: 70% | pest or weed control at 62.5 µg/mL [10]: 10% | pest or weed control at 62.5 µg/mL [11]: 0% | melting point: 98 °C

From US6784137B2, “6-aryl-4-aminopicolinates and their use as herbicides” (Dow AgroSciences LLC, priority 2001, dated 2004)
